Read-outs that look alike come from different tables or passages of the source. Strand notation (5' to 3'): a small letter for the sugar, then the base; units joined by * are phosphorothioate-linked, units joined directly phosphodiester-linked; [ ] holds rarer units or linkages, { } end groups; capitals alone tell only the bases. e = 2'-O-(2-methoxyethyl) (MOE); [5mC] = 5-methylcytosine; d = 2'-deoxy (DNA)
Tests used:
[1] = cited from earlier work
NSCLC = conditions: 2nd line setting, from reports; cited from earlier work
CYP3A4 = CYP3A4 (Homo sapiens, UniProt P08684); conditions: cited from earlier work
Chain of CYP3A4 (P08684 whole entry): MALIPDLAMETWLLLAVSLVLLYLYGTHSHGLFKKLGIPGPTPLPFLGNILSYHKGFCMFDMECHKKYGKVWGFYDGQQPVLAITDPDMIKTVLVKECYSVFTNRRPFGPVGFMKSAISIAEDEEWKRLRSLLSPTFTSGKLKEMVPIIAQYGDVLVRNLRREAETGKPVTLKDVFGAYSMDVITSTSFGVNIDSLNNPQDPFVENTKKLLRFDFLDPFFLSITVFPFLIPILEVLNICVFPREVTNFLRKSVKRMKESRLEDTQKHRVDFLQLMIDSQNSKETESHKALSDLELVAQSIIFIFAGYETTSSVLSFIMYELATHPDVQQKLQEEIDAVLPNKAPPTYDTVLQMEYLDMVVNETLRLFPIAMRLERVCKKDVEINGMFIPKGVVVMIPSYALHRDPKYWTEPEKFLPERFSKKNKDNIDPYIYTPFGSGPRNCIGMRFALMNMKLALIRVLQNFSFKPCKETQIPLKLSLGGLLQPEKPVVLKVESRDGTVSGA

stage IIIB or IV NSCLC = assay: Phase 1-2 study of weekly custirsen plus a gemcitabine/platinum-based regimen: survival by baseline serum clusterin; assay type: in vivo, human
Procedure: The relationship between serum clusterin levels and the duration of individual survival was evaluated during a phase 1-2 study of weekly custirsen plus a gemcitabine/platinum-based regimen in patients with stage IIIB or IV NSCLC. Not all of the patients in this study had baseline levels of clusterin measured. However, starting with N=69 subjects with measured baseline clusterin levels, fitting the Cox proportional hazards (PH) model with baseline clusterin as sole predictor gives p=0.10; the coefficient is positive, so that higher clusterin is associated with increased survival risk. Among the N=55 subjects who also had post-baseline data collected, fitting the same PH model gives p=0.05, again with positive coefficient.
A careful search for possible cutpoints, using all N=69 subjects with baseline clusterin levels, produced 71 μg/mL as a strong candidate.
Among all N=69 subjects with a baseline clusterin level, there were […] with clusterin ≦71 μg/mL (median survival time was 18.8 months), and N=26 subjects with baseline clusterin >71 μg/mL (median survival time was 10.2 months); the log-rank p-value=0.004. Removing the N=14 early discontinuers leaves N=35 subjects with baseline clusterin ≦71 μg/mL (median survival time was 28.7 months), and N=20 subjects with baseline clusterin >71 μg/mL (median survival time was 12.2 months); the log-rank p-value=0.0002.

[2] = in vivo
Procedure: Three doses of 640 mg custirsen are administered IV during the Loading Dose Period (Days −9 to −1). There is at least one “non-infusion” day between each administration of custirsen (i.e. every other day) during the Loading Dose Period and between the third loading dose of custirsen and Day 1 of Cycle 1. The day prior to Day 1 of Cycle 1 (Day 0) is a “no treatment” day. There are no more than 4 days between the last loading dose and Day 1 of Cycle 1. A common schedule is to give the three loading doses of custirsen on Monday, Wednesday and Friday with Day 1, Cycle 1 starting on the following Monday. Up to nine days are allowed for completing the three loading doses prior to Day 0 to account for clinic visits, weekends, and holidays. Subjects receive each dose of custirsen as a 2 hour infusion.

clusterin = conditions: broad range of studies (Miyake et al. 2005); cited from earlier work
[3] = tested on: cancerous human prostate, breast, ovarian, lung, renal, bladder, and melanoma cells; conditions: broad range of studies (Miyake et al. 2005); cited from earlier work

In the case of `CC(=O)O[C@@]12CO[C@@H]1C[C@H](O)[C@@]1(C)C(=O)[C@H](O)C3=C(C)[C@@H](OC(=O)[C@H](O)[C@@H](NC(=O)OC(C)(C)C)c4ccccc4)C[C@@](O)([C@@H](OC(=O)c4ccccc4)[C@H]21)C3(C)C` [Docetaxel], the “patients with grade 4 neutropenia (<500 cells/mm^3)” value ([1]; 60 mg/m^2) is given as 75%, the “patients with grade 4 neutropenia (<500 cells/mm^3)” value ([1]; 100 mg/m^2) is given as 85% and the “patients with neutropenia (<2,000 neutrophils/mm^3)” value ([1]; 60-100 mg/m^2) is given as “virtually all”. For the same compound, the “median PFS” value (NSCLC) was “about 3 months” and the CYP3A4 substrate (CYP3A4) was “substrate”.

“custirsen: anti-clusterin antisense oligonucleotide CAGCAGCAGAGTCTTCATCAT, phosphorothioate backbone, 2′-O-methoxyethyl at nucleotides 1-4 and 18-21, 5-methylcytosines at 1, 4, 19 (antisense e[5mC]*eA*eG*e[5mC]*dA*dG*dC*dA*dG*dA*dG*dT*dC*dT*dT*dC*dA*eT*e[5mC]*eA*eT; listed as Homo sapiens)” showed a median survival time (stage IIIB or IV NSCLC; baseline clusterin >71 μg/mL, N=20, early discontinuers removed) of 12.2 months, a median survival time (stage IIIB or IV NSCLC; baseline clusterin >71 μg/mL, N=26 of all N=69 subjects) of 10.2 months and a median survival time (stage IIIB or IV NSCLC; baseline clusterin ≦71 μg/mL, N=35, early discontinuers removed) of 28.7 months. For the same compound, the median survival time (stage IIIB or IV NSCLC; baseline clusterin ≦71 μg/mL, N=45 of all N=69 subjects) was 18.8 months, the “subjects with grade 1-2 constitutional symptoms (e.g., fever and chills)” value [2] was 50-60% and the expression of clusterin (clusterin) was “potently reduces”. The “sensitization of cancer cells to chemotherapy” value [3] was “sensitizes”.

Source: patent publication US20130017272A1, “METHOD FOR TREATING NON-SMALL CELL LUNG CANCER” (priority 2011, published 2013)
